According to PMC8763920, “Unprotected peptide macrocyclization and stapling via a fluorine-thiol displacement reaction” (Nature Communications, 2022):
*1 amine or outer side, *2 acyl side, *3 side chain or, on linkers, in order; H or OH if unused. Where a SMILES comes first, the peptide text is derived from it. Bridges are numbered along the chain shown (N, C = ends). [ ]: non-standard residue; d: D form. The star is where a group is joined. Benzene(1,3-(CH2SCH2CO)2) = O=C(CSCc1cccc(CSCC(=O)[*:2])c1)[*:1]; FITC = O=C1OC2(c3ccc(O)cc3Oc3cc(O)ccc32)c2ccc(NC(=S)*)cc21; dDap = NC[C@@H](N)C(=O)O; Dap = NC[C@H](N)C(=O)O; βAla = NCCC(=O)O

Assays:
[1] = circular dichroism; settings: water; pH ns; 25 °C; 70 uM
[2] = test system: β-catenin mediated transcription; test: TOPFlash luciferase reporter assay; assay type: cell-based; settings: DLD-1 cells, 15 μM peptide, 24 h
Method: For evaluation of Axin peptide analogues, DLD-1 cells were cultured in 96-well flat bottom plates up to 70–80% confluency and were transfected with 200 ng M50 TOPFlash plasmid (a gift from Professor Raymond Habas, Temple Biology) and 50 ng pRL-TK plasmid (Promega). 12 h after transfection, cells were treated with DMSO vehicle or 15 μM of Axin peptide analogues for another 24 h. Luciferase activity was measured using the Dual-Glo luciferase assay kit (Promega) on a Biotek Synergy H1 plate reader using the Gen5 software. Data were processed as firefly: Renilla luciferase ratio for each control or treatment group, and were further normalized against the vehicle control group (100%) as the Relative Activities.

[3] = test system: DLD-1 cells; test: 5-day growth inhibition of DLD-1 cancer cells; assay type: cell-based; settings: CellTiter Glo; for EC50: 5 days, 1000 cells per well, n = 3, read-out: EC50, inhibition of DLD-1 cell growth
Method: (§1) For growth inhibition by Axin peptides, DLD-1 cells were cultured and maintained as mentioned before. Right before the assay, cells were resuspended in fresh RPMI media supplemented with 10% FBS, 100 IU/mL penicillin, and 100 µg/mL streptomycin, and plated onto 96-well white flat-bottom plates at 1000 cells per well (90 µL media/well). After overnight incubation, peptide samples were serially diluted as 10× stock in PBS buffer (10% DMSO), and were added to the plated cells at 10 µL stock solution/well in triplicate to make final treatment concentrations of 0, 0.0625, 0.125, 0.25, 0.5, 1, 2, 4, 8, 16 µM. The wells on the edges of plates were filled with PBS buffer to avoid unwanted evaporation of samples. The samples on the plates were incubated at 37 °C, 5% CO2 for 5 days, and the cell viability was evaluated by CellTiter Glo (Promega). The luminescence signals were recorded by the H1 synergy plate reader (Biotek) using the Gen5 software, and were normalized against the control groups (100%) for which cells were only treated with the vehicle (PBS/1% DMSO). Control HEK293 cells were cultured in DMEM media supplemented with 10% FBS, 1% penicillin/streptomycin at 37 °C, 5% CO2, then incubated with peptide samples and measured for viability in the same manner as mentioned above. For Axin peptide analogues’ time-dependent cytotoxicity, peptide analogues were mixed with cells (1000 cells per well) at a final concentration of 0, 5, 10, and 15 µM. The cell viabilities were meaured via CellTiter Glo after incubation of 1 day, 2 days, and 4 days, respectively. […] After 24 h of incubation, the cell viabilities were measured and normalized against the vehicle control groups the same as mentioned above.

[4] = test system: DLD-1 cells; test: Time-dependent cytotoxicity/growth inhibition of Axin peptide analogues; assay type: cell-based; settings: 0, 5, 10, 15 µM; after 48 h of incubation; CellTiter Glo
Method: as §1, with “The wells on the edges of plates were filled with PBS buffer to avoid unwanted evaporation of samples.” left out, “above.” for “above. For Axin peptide analogues’ time-dependent cytotoxicity, peptide analogues were mixed with cells (1000 cells per well) at a final concentration of 0, 5, 10, and 15 µM. The cell viabilities were meaured via CellTiter Glo after incubation of 1 day, 2 days, and 4 days, respectively.”

[5] = test system: DLD-1 cells; test: Cell viability assay for imaging studies, Axin analogues; assay type: cell-based; settings: 10 µM, 12 h incubation, CellTiter-Glo
Method: For Jurkat cells, after imaging studies with SAHBA analogues (5 µM, 4 h of incubation), viabilities were measured by mixing with the CellTiter-Glo reagent and the chemiluminescence signals were recorded and processed the same as metioned above. Similarly, confocal imaging of DLD-1 cells for the penetration pathway studies were followed by viability measurements. Cells treated with vehicle groups were also analysed and counted as the 100% control.

[6] = test system: HEK293 cells; test: 5-day growth of HEK293 control cells; assay type: cell-based; settings: 5 days, CellTiter Glo, up to 16 µM
Method: as §1, with “The wells on the edges of plates were filled with PBS buffer to avoid unwanted evaporation of samples.” left out, “above.” for “above. For Axin peptide analogues’ time-dependent cytotoxicity, peptide analogues were mixed with cells (1000 cells per well) at a final concentration of 0, 5, 10, and 15 µM. The cell viabilities were meaured via CellTiter Glo after incubation of 1 day, 2 days, and 4 days, respectively.”

[7] = test system: HeLa cells; test: Cell penetration of STAD peptides, confocal imaging; assay type: cell-based; settings: 5 µM peptide, 2 h, confocal microscopy, 78 normalized as 1, mean ± SEM
Method: Hoechst 33342 dye and FITC-labelled peptides were excited with 405 and 488 nm lasers (Coherent OBIS), respectively. Images were analysed with NIH ImageJ software. Using the “analyse particles” function, we measured the area and intensity of individual cells (Supplementary Fig. 34a)[87]. […] However, from the distribution of data we found the best fit curve to be lognormal. Outliers were then removed using a Grubbs test (Supplementary Fig. 35b)[88]. We determined the optimal bin size for the histogram using the Freedman–Draconis rule[89]. The mean fluorescence intensity from each treatment group was calculated from n ≥ 100 cells. Error bars represented SE. P values were calculated by two sided Welch’s t test for comparison with internalization of RCM-stapled control peptides.
For FITC-labelled SAHBA analogues, 5 μM of each was incubated with Jurkat cells for 4 h[13]. The rest of the imaging procedures were done the same as mentioned above. Likewise, 5 µM of STAD peptides were incubated with HeLa cells for 2 h[71], followed by similar imaging studies; and 2 µM of p53 peptide analouges were mixed with HCT116 wt cells for 4 h before the imaging analysis of their cellular uptake. Cell samples treated with STAD or p53 series of peptide analogues were also simulatenously stained by propidium iodide (PI) to ensure the cell viability and membrane integrity.

[8] = test system: p53 wild-type HCT-116 cells; assay type: cell-based; settings: human
[9] = Circular dichroism, % alpha helicity; assay type: physicochemical; settings: CD, 70 µM peptide, 25 °C, from MRE at 222 nm, three scans averaged; Axin and p53 peptides in water, HIV-targeting peptides in 25% acetonitrile/water
Method: The final concentration of the peptide samples was 70 µM. Circular dichroism (CD) measurements were performed on a Jasco model J-815 spectropolarimeter with a 1 mm Jasco quartz cell over the wavelength range of 180–250 nm. The scans were carried out at 0.2 nm resolution with 4 s average time at 25 °C. Data from three scans were averaged, base line corrected, and normalized to the mean residue ellipticity (MRE) following the equation: [θ]λ = [θ]obs/(10 × l × C × n). [θ]λ is MRE in deg × cm^2 × dmol^−1; [θ]obs is the measured ellipticity; C is the concentration of peptides in M; l is the optical pathlength in cm; and n is the number of residues in peptides. The % alpha helicity was calculated from the MRE values at 222 nm, using the equation % helicity = ([θ]222−[θ]0)/([θ]max−[θ]0) based on the previously reported method. [θ]222 is the MRE value at 222 nm; [θ]max is the maximum theoretical MRE value for a helix of n residues; and [θ]0 is the MRE value of the peptide in random coil conformation that usually equals to (2220-53T)[86].

CC[C@H](C)[C@@H]1NC(=O)[C@@H](NC(=O)[C@@H](N)CCC(=O)O)CNC(=O)CSCc2cccc(c2)CSCC(=O)NC[C@@H](C(=O)N[C@@H](Cc2c[nH]cn2)C(=O)O)NC(=O)[C@H](CC(=O)O)NC(=O)[C@H](CC(C)C)NC1=O (H-E[Dap]ILD[Dap]H-OH; linker 2-6 via Benzene(1,3-(CH2SCH2CO)2))
helicity [1]: 41%

CC[C@H](C)[C@@H]1NC(=O)[C@@H](NC(=O)[C@@H](N)CCC(=O)O)CNC(=O)CSCc2cccc(c2)CSCC(=O)NC[C@H](C(=O)N[C@@H](Cc2c[nH]cn2)C(=O)O)NC(=O)[C@H](CC(=O)O)NC(=O)[C@H](CC(C)C)NC1=O (H-E[Dap]ILD[dDap]H-OH; linker 2-6 via Benzene(1,3-(CH2SCH2CO)2))
helicity [1]: 39%

CC[C@H](C)[C@@H]1NC(=O)[C@H](NC(=O)[C@@H](N)CCC(=O)O)CNC(=O)CSCc2cccc(c2)CSCC(=O)NC[C@@H](C(=O)N[C@@H](Cc2c[nH]cn2)C(=O)O)NC(=O)[C@H](CC(=O)O)NC(=O)[C@H](CC(C)C)NC1=O (H-E[dDap]ILD[Dap]H-OH; linker 2-6 via Benzene(1,3-(CH2SCH2CO)2))
helicity [1]: 13%

CC[C@H](C)[C@@H]1NC(=O)[C@@H](NC(=O)[C@H](CCC(N)=O)NC(=O)[C@@H]2CCCN2C(=O)[C@H](Cc2c[nH]c3ccccc23)NC(=O)[C@H](CCCNC(=N)N)NC(=O)COCCOCCNC(=S)Nc2ccc3c(c2)C(=O)OC32c3ccc(O)cc3Oc3cc(O)ccc32)CNC(=O)CSCc2cccc(c2)CSCC(=O)NC[C@@H](C(=O)N[C@@H](Cc2c[nH]cn2)C(=O)N[C@H](C(=O)N[C@@H](CCCNC(=N)N)C(=O)N[C@@H](CCCNC(=N)N)C(=O)N[C@H](C(=O)N[C@@H](Cc2c[nH]c3ccccc23)C(=O)N[C@@H](CCCNC(=N)N)C(N)=O)C(C)C)C(C)C)NC(=O)[C@H](CC(=O)O)NC(=O)[C@H](CC(C)C)NC1=O [compound 65]
inhibition of β-catenin mediated transcription (TOPFlash) [2]: strong inhibition
EC50 [3]: 2300 ± 400 nM
effects on DLD-1 cells over a time course of 24–96 h [4]: significant effects
effect on viability of DLD-1 cells [5]: did not affect the viability
effect on growth of HEK293 control cells [6]: little effects

CC[C@H](C)[C@@H]1NC(=O)[C@@H](NC(=O)[C@H](CCC(N)=O)NC(=O)[C@@H]2CCCN2C(=O)[C@H](Cc2c[nH]c3ccccc23)NC(=O)[C@H](CCCNC(=N)N)NC(=O)COCCOCCNC(=S)Nc2ccc3c(c2)C(=O)OC32c3ccc(O)cc3Oc3cc(O)ccc32)CNC(=O)CSCc2cccc(c2)CSCC(=O)NC[C@H](C(=O)N[C@@H](Cc2c[nH]cn2)C(=O)N[C@H](C(=O)N[C@@H](CCCNC(=N)N)C(=O)N[C@@H](CCCNC(=N)N)C(=O)N[C@H](C(=O)N[C@@H](Cc2c[nH]c3ccccc23)C(=O)N[C@@H](CCCNC(=N)N)C(N)=O)C(C)C)C(C)C)NC(=O)[C@H](CC(=O)O)NC(=O)[C@H](CC(C)C)NC1=O [compound 67]
inhibition of β-catenin mediated transcription (TOPFlash) [2]: strong inhibition
EC50 [3]: 9800 ± 2000 nM
effects on DLD-1 cells over a time course of 24–96 h [4]: significant effects
effect on viability of DLD-1 cells [5]: did not affect the viability
effect on growth of HEK293 control cells [6]: little effects

CC[C@H](C)[C@@H]1NC(=O)[C@@](C)(NC(=O)[C@H](CCC(N)=O)NC(=O)[C@@H]2CCCN2C(=O)[C@H](Cc2c[nH]c3ccccc23)NC(=O)[C@H](CCCNC(=N)N)NC(=O)COCCOCCNC(=S)Nc2ccc3c(c2)C(=O)OC32c3ccc(O)cc3Oc3cc(O)ccc32)CCC/C=C\CCC[C@@](C)(C(=O)N[C@@H](Cc2c[nH]cn2)C(=O)N[C@H](C(=O)N[C@@H](CCCNC(=N)N)C(=O)N[C@@H](CCCNC(=N)N)C(=O)N[C@H](C(=O)N[C@@H](Cc2c[nH]c3ccccc23)C(=O)N[C@@H](CCCNC(=N)N)C(N)=O)C(C)C)C(C)C)NC(=O)[C@H](CC(=O)O)NC(=O)[C@H](CC(C)C)NC1=O [compound 68, reference compound]
concentration at which significant growth inhibition was first displayed ([3]; DLD-1, 5 days, highest tested 16 µM): 16 µM

CC[C@H](C)[C@@H]1NC(=O)[C@@H](NC(=O)[C@H](CC(=O)O)NC(=O)[C@H](C)NC(=O)[C@H](CC(C)C)NC(=O)[C@H](CCC(N)=O)NC(=O)[C@H](CCCCN)NC(=O)[C@H](C)NC(=O)[C@H](Cc2ccc(O)cc2)NC(=O)[C@H](CCCCN)NC(=O)[C@H](CCCCN)NC(=O)CCNC(=S)Nc2ccc3c(c2)C(=O)OC32c3ccc(O)cc3Oc3cc(O)ccc32)CNC(=O)CSCc2cccc(c2)CSCC(=O)NC[C@@H](C(=O)N[C@@H](C)C(=O)N[C@H](C(=O)N[C@@H](CCC(=O)O)C(N)=O)[C@@H](C)O)NC(=O)[C@H](CCCCN)NC(=O)[C@H]([C@@H](C)CC)NC1=O [compound 75] ({FITC-βAla}-KKYAKQLAD[Dap]IIK[Dap]ATE-NH2; linker 10-14 via Benzene(1,3-(CH2SCH2CO)2))
mean intensity versus RCM stapled STAD 78 [7]: 2.92 ± 0.08 fold

CC(=O)N[C@@H](CCC(N)=O)C(=O)N[C@@H](CO)C(=O)N[C@@H](CCC(N)=O)C(=O)N[C@@H](CCC(N)=O)C(=O)N[C@H](C(=O)N[C@@H](Cc1ccccc1)C(=O)N[C@H]1CNC(=O)CSCc2ccc(cc2)CSCC(=O)NC[C@@H](C(=O)N[C@@H](CCC(N)=O)C(=O)N[C@@H](CC(N)=O)C(N)=O)NC(=O)[C@H](CC(C)C)NC(=O)[C@H](CC(C)C)NC(=O)[C@H](CCCNC(=N)N)NC(=O)[C@H](Cc2c[nH]c3ccccc23)NC(=O)[C@H](CC(C)C)NC(=O)[C@H](CC(N)=O)NC1=O)[C@@H](C)O [compound 82]
helicity [1]: 61%
EC50 [8]: 660 ± 190 nM

CC(=O)N[C@@H](CCC(N)=O)C(=O)N[C@@H](CO)C(=O)N[C@@H](CCC(N)=O)C(=O)N[C@@H](CCC(N)=O)C(=O)N[C@H](C(=O)N[C@@H](Cc1ccccc1)C(=O)N[C@H]1CNC(=O)CSCc2ccc(cc2)CSCC(=O)NC[C@H](C(=O)N[C@@H](CCC(N)=O)C(=O)N[C@@H](CC(N)=O)C(N)=O)NC(=O)[C@H](CC(C)C)NC(=O)[C@H](CC(C)C)NC(=O)[C@H](CCCNC(=N)N)NC(=O)[C@H](Cc2c[nH]c3ccccc23)NC(=O)[C@H](CC(C)C)NC(=O)[C@H](CC(N)=O)NC1=O)[C@@H](C)O [compound 87]
helicity [1]: 64%
Helicity (%) [9]: 64%
EC50 [8]: 710 ± 180 nM
